The target of assay [1] is T1, RORγt (Homo sapiens, UniProt P51449).
T1 construct: gene RORC; RORγt-LBD
Kind of assay: FRET coactivator-peptide recruitment assay with human RORγt-LBD (inverse agonist, max. -[…]). In kind it is binding.

Assay [2] addresses T1, RORγt. Kind of assay: FRET coactivator-peptide recruitment assay with human RORγt-LBD (agonist, max. act. […]). In kind it is binding.

T1 sequence (Q15788 2-1441): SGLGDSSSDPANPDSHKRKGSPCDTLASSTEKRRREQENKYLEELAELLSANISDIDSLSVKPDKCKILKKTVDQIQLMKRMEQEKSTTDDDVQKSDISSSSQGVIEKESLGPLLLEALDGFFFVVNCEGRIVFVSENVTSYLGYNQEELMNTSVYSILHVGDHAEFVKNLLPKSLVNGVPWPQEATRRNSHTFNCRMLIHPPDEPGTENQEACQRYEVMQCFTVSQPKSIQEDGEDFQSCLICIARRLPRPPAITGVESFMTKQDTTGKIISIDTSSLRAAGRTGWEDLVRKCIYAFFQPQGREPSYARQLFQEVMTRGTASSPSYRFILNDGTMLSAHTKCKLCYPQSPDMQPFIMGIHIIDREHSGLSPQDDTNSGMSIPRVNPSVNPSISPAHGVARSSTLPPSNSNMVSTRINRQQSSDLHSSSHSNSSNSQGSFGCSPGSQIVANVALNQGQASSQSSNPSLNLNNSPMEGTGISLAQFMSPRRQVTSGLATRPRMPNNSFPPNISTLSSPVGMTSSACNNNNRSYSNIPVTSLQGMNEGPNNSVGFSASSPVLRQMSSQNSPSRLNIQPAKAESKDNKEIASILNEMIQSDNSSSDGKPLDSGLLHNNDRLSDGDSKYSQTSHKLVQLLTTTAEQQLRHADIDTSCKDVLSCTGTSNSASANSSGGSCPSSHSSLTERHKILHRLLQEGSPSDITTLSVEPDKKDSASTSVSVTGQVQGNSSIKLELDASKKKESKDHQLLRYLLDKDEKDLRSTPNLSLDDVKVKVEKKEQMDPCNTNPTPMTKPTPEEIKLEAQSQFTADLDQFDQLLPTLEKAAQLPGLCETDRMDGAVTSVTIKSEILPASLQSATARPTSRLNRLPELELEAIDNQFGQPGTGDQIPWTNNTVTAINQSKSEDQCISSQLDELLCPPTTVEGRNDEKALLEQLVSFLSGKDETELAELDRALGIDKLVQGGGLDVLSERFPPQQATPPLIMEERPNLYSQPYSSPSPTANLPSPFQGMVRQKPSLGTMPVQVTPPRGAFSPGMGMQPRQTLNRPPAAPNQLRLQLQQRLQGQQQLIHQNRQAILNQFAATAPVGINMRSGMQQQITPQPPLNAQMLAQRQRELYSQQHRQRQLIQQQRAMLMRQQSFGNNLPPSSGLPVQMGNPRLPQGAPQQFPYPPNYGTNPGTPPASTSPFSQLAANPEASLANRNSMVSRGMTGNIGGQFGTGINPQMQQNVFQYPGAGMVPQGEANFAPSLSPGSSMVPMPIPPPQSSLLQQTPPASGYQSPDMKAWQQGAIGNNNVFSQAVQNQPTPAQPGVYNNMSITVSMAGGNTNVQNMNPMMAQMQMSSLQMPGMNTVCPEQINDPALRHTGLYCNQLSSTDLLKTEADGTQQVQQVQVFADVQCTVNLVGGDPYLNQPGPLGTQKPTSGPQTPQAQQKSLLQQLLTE
T1 sequence (P51449 265-507): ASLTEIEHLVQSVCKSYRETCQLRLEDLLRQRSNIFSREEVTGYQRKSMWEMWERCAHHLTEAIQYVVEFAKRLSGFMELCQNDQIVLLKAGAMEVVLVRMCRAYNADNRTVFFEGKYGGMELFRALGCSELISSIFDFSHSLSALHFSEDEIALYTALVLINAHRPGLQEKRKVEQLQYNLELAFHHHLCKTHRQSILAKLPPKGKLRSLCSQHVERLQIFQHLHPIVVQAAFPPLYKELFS

In assay [1], `CC(=O)N1CCN(c2ccc(N(C3CCC3)S(=O)(=O)Cc3ccccc3)cc2)CC1` [GT] showed an IC50 of 53 nM. That is a double-digit nanomolar value.
On to `CC(=O)N1CCN(c2ccc3c(c2)CCCN3S(=O)(=O)c2ccccc2)CC1` [compound 1, agonist 1], for which the midpoint of the response in assay [2], the EC50, lay at 3700 nM.

The values above are taken from publication PMC6321388, “Molecular Mechanism of Action of RORγt Agonists and Inverse Agonists: Insights from Molecular Dynamics Simulation” (Molecules, 2018).
